Reference: patent US5162316A, “Pyrimido[4,5-d]pyrimidine derivatives for use as bronchodilators” (Smith Kline & French Laboratories Limited, priority 1988, dated 1992)
One block for each compound: values may come before it.

Columns and labels:
[1] = system: U46619-induced bronchoconstriction; assay: Bronchodilatation in vivo: inhibition of U46619-induced bronchoconstriction in anaesthetised guinea-pigs (Konzett-Rossler); set-up: species or system guinea-pig (Dunkin Hartley, male); conditions: for ED50: Cavia porcellus, iv, i.v. bolus, anaesthetised guinea-pig, range for the group of listed Examples, read-out: BD50 (dose of compound required to reduce the U46619-induced bronchoconstriction by 50%)
Procedure: Male guinea-pigs of the Dunkin Hartley strain (500-600g) were anaesthetised with Sagatal (pentobarbital sodium) (60 mg/kg). Airway resistance was measured using a modification of the classical Konzett-Rossler technique (J. Pharm. Methods, 13, 309- 315, 1985). […] The compound under test was administered by i.v. bolus injection, and the subsequent peak inhibition of bronchoconstriction recorded.
The dose of compound required to reduce the U46619-induced bronchoconstriction by 50% is given as the BD50. The compounds of Examples 1, 7, 8, 12, 13, 14, 18, 20, 21, 22 and 24 had BD50 values in the range 0.48-3.85 μmol/kg.

hindquarter blood flow = assay: Vasodilatation in vivo: hindquarter blood flow in anaesthetised rats; set-up: species or system rat (Wistar, male); conditions: bolus i.v., 50 μmol/kg, rat
Procedure: Male Wistar rats (300 g) were anaesthetised with a sodium 5-ethyl-5-(1methylpropyl)-2-thiobarbiturate/sodium pentobarbitone mixture i.p. (62.5 and 22.5 mg/kg respectively). The trachea was cannulated and the rats breathed spontaneously air enriched with O2 (5 ml/min). Blood pressure was recorded from a carotid artery and a jugular vein was cannulated for the administration of compounds. The temperature of the animal was maintained at 37° C. by the use of an electric blanket. […] The perfusion circuit was primed with 5% bovine serum albumin dissolved in 0.9% sodium chloride solution, pH adjusted to 7.4. Initially the pump rate was set between 10 and 15 ml/min to match the hind quarter perfusion pressure to that of the systemic circulation. Once set, the pressure remained unaltered for the rest of the experiment. A change in the speed of the pump (equivalent to hindquarter blood flow) was used to assess the changes in hindquarter vascular resistance.

[2] = system: ovalbumen-induced bronchoconstrictor response; assay: Anti-allergic activity: ovalbumen-induced bronchoconstriction in sensitised guinea-pigs; type: in vivo, guinea-pig (Duncan Hartley, male); conditions: ovalbumen 1 mg/kg i.v., n=6
Procedure: Male Duncan Hartley guinea-pigs (250-300 g) were sensitised to ovalbumen by i.p. injection of 2 ml of 50mg.ml^-1 i.p. and 0.2 ml s.c. Three weeks later they were anaesthetised with 60mg.kg^-1 sodium pentabarbitone. The trachea was cannulated and the animal respired at a rate of 40 breaths per minute and at an initial tracheal inflation pressure of 16 mmHg. Tracheal inflation pressure was measured by a transducer connected to a side arm of the respiration circuit. The carotid artery was cannulated for the measurement of blood pressure and the signal was used to trigger an instantaneous rate meter. A jugular vein was cannulated for the administration of drug and allergen. After surgery the animals were allowed to stabilise and the drug was administered i.v. as a bolus. Following this, ovalbumen 1 mg.kg^-1 was injected i.v. as the antigen challenge either 2, 15 or 30 minutes following drug treatment and the peak bronchoconstrictor response recorded. For the control group ovalbumen only was given. One ovalbumen challenge per guinea-pig was used and n=6 for each time point. The percentage increase in tracheal inflation pressure was calculated. The following results indicating an anti-allergic activity were obtained.

[3] = biological target: T1, calmodulin insensitive cyclic GMP phosphodiesterase (Sus scrofa, UniProt A0A287B475); assay: Kinetic properties of the isolated PDE activity; type: biochemical, pig; conditions: at 1 μM substrate
T1 construct: kept on ice until the pulmonary arteries or aortas could be dissected and excess fat removed; from tissue; host or cells: pig pulmonary arteries or aortas; soluble fraction purified over DEAE-Sepharose, calmodulin-agarose and cibacron blue-agarose
Procedure: Eight pig hearts/lungs were collected from the abattoir and kept on ice until the pulmonary arteries or aortas could be dissected and excess fat removed. 120 g of tissue was dissected. […] On the day of homogenisation, tissue was cooled with liquid nitrogen and broken into small pieces by striking with a hammer. […] Phenylmethanesulphonylfluoride (PMSF) was added to a final concentration of 50 μM just prior to homogenisation. The homogenate was then centrifuged for 20 minutes at 30,000 g. Supernatant was filtered firstly through glass wool and then a 0.45 μm filter. […] The column was washed with 150 mls of homogenisation buffer and PDE activities eluted with 150 ml of homogenisation buffer containing 100 mM sodium acetate.
Fractions 2 and 3 were pooled and BIS-TRIS, MgCl2, CaCl2 added to final concentrations of 50 mM, 7 mM and 5 mM respectively. PMSF, leupeptin, antipain and pepstatin A were also added at the concentrations described above for these components. The pH of this pooled sample was corrected to 6.9.
The first column in the tandem was a 5 ml calmodulin-agarose column (Sigma) and the second a 1.5 ml cibacron blue 3GA-agarose column (Sigma). Both columns were pre-equilibrated with 50 mM BIS-TRIS, 5 mM MgCl2, 5 mM CaCl2, 5 mM benzamidine, 2 mM dithiothreitol pH 6.9. Following application of the sample the columns were washed with 20 ml of equilibration buffer. […]

[4] = system: [H][C@@]12COP(=O)(O)O[C@@]1([H])[C@@H](O)[C@H](n1cnc3c(=O)[nH]c(N)nc31)O2; assay: purified protein, by the assay type; conditions: other: substrate of the isolated PDE activity

Compound: CCCOc1ccccc1-c1nc2nc(SC)ncc2c(=O)[nH]1 [Example 1, 7-Methylthio-4-oxo-2-(2-propoxyphenyl)-3,4-dihydropyrimido-[4.5-d]pyrimidin]
- ED50 [1]: 0.48 to 3.85 µmol/kg
- increase in hindquarter blood flow (hindquarter blood flow): 43.7%

Compound: CCCOc1ccccc1-c1nc2nc(N)ncc2c(=O)[nH]1 [Example 7, 7 Amino 4-oxo-2-(2-propoxyphenyl)-3,4-dihydropyrimido[4.5-d]pyrimidine]
- ED50 [1]: 0.48 to 3.85 µmol/kg

Compound: CCCOc1ccccc1-c1nc2nc(NC)ncc2c(=O)[nH]1 [Example 8, 7-Methylamino-4-oxo-2-(2-propoxyphenyl)-3,4-dihydropyrimido[4.5-d]pyrimidine]
- % Inhibition of Control Bronchoconstrictor Response 30 min after drug administration ([2]; dose 6.0 μmol/kg i.v.): 23%
- ED50 [1]: 0.48 to 3.85 µmol/kg

Compound: CCCOc1ccccc1-c1nc2nc(NCC)ncc2c(=O)[nH]1 [Example 12, 7-Ethylamino-4-oxo-2-(2-propoxyphenyl)-3,4-dihydropyrimido[4,5-d]pyrimidine]
- % Inhibition of Control Bronchoconstrictor Response 30 min after drug administration ([2]; dose 18.7 μmol/kg i.v.): 24%
- ED50 [1]: 0.48 to 3.85 µmol/kg

Compound: CCCOc1ccccc1-c1nc2nc(NCCO)ncc2c(=O)[nH]1 [Example 13]
- % Inhibition of Control Bronchoconstrictor Response 30 min after drug administration ([2]; dose 4.8 μmol/kg i.v.): 21%
- ED50 [1]: 0.48 to 3.85 µmol/kg

Compound: CCCOc1ccccc1-c1nc2nc(CC)ncc2c(=O)[nH]1 [Example 14, 7-Ethyl-4-oxo-2-(2-propoxyphenyl)-3,4-dihydropyrimido[4,5-d]pyrimidine]
- ED50 [1]: 0.48 to 3.85 µmol/kg

Compound: CCCOc1ccccc1-c1nc2nc(NC3CC3)ncc2c(=O)[nH]1 [Example 18, 7-Cyclopropylamino-4-oxo-2-(2-propoxyphenyl)-3,4-dihydropyrimido[4,5-d]pyrimidine]
- % Inhibition of Control Bronchoconstrictor Response 30 min after drug administration ([2]; dose 22.6 μmol/kg i.v.): 44%
- ED50 [1]: 0.48 to 3.85 µmol/kg

Compound: CCCNc1ncc2c(=O)[nH]c(-c3ccccc3OCCC)nc2n1 [Example 20, 7-Propylamino-4-oxo-2-(2-propoxyphenyl)-3,4-dihydropyrimido[4,5-d]pyrimidine]
- ED50 [1]: 0.48 to 3.85 µmol/kg

Compound: CCCOc1ccccc1-c1nc2nc(NCCCO)ncc2c(=O)[nH]1 [Example 21, 7-(3-Hydroxypropylamino)-4-oxo-2-(2-propoxyphenyl)-3,4-dihydropyrimido[4.5 d]pyrimidine]
- ED50 [1]: 0.48 to 3.85 µmol/kg

Compound: CCCOc1ccccc1-c1nc2nc(NCCOC)ncc2c(=O)[nH]1 [Example 22]
- ED50 [1]: 0.48 to 3.85 µmol/kg

Compound: CCCOc1ccccc1-c1nc2nc(NCC(C)O)ncc2c(=O)[nH]1 (centres unmarked) [Example 24, 7-(2-Hydroxypropylamino)-4-oxo-2-(2-propoxyphenyl)-3,4-dihydropyrimido[4,5-d]pyrimidine]
- % Inhibition of Control Bronchoconstrictor Response 30 min after drug administration ([2]; dose 6.5 μmol/kg i.v.): 24%
- ED50 [1]: 0.48 to 3.85 µmol/kg

Compound: CCCCCC(O)C=CC1C2CC(CO2)C1CC=CCCCC(=O)O (centres unmarked) [Example U46619, 9,11-methaneoepoxy-PGH2, reference compound]
- increase from basal airway resistance (steady state of bronchoconstriction) ([1]; U46619 infused i.v. at 2.5 nmol/min): approximately 120%

- Ratio of cGMP/cAMP hydrolysis [3]: 30
Compound: Nc1nc2c(ncn2[C@@H]2O[C@@H]3COP(=O)(O)O[C@H]3[C@H]2O)c(=O)[nH]1 [cGMP]

Compound: calmodulin insensitive cyclic GMP phosphodiesterase (Sus scrofa)
- Km [4]: 1.3 µM
